Results published in patent US20080181866A1, “Amido Anti-viral Compounds” (Genelabs Technologies, Inc., priority 2006, published 2008).

These molecules were tested on HCV replication (assay: HCV replicon assay (luciferase) in ET (Huh-lucubineo-ET) cell line). Details: Hepatitis C virus, tested at 5 μM; ET replicon cells; luciferase activity measured 48-72 hours later; relative to no compound control.
Type: cell-based
Procedure, shortened: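 Huh-lucubineo-ET cells stably carry a subgenomic replicon with a firefly luciferase–ubiquitin–neo fusion and adaptive NS3-5B mutations; they were seeded 24 h before compound addition (0.1 nM–50 μM, 0.5% DMSO). Luciferase was read 48–72 h later as % inhibition versus no-compound control, with parallel WST-1 cytotoxicity. EC50 and TC50 came from 10-point 2-fold dilutions fitted to a Hill equation.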
In the case of `O=C(NC1CC1)c1ccc(-c2csc(NC(=O)[C@@H]3CSC(C4CCOCC4)N3C(=O)OCc3ccccc3)n2)cc1` (mixture of isomers) [Compound 7025, (R)-4-[4-(4-Cyclopropylcarbamoyl-phenyl)-thiazol-2-ylcarbamoyl]-2-(tetrahydro-pyran-4-yl)-thiazolidine-3-carboxylic acid benzyl ester], the inhibition at 5 µM is reported as 100%. `O=C(Cc1cccc(NC(=O)[C@@H]2CSC(c3ccncc3)N2C(=O)OCc2ccccc2)c1)NCCc1ccccc1` (stereo partly drawn) [Compound 7136, 4-[3-(Phenethylcarbamoyl-methyl)-phenylcarbamoyl]-2-pyridin-4-yl-thiazolidine-3-carboxylic acid benzyl ester] showed an inhibition at 5 µM of 90%. Molecule `CC(C)(C)OC(=O)NCc1ccc(NC(=O)[C@@H]2CSC(c3ccncc3)N2C(=O)OCc2ccccc2)cc1` (stereo partly drawn) [Compound 7078, 4-[4-(tert-Butoxycarbonylamino-methyl)-phenylcarbamoyl]-2-pyridin-4-yl-thiazolidine-3-carboxylic acid benzyl ester] has an inhibition at 5 µM of 35.6%. Molecule `O=C(NC1CC1)c1ccc(-c2csc(NC(=O)[C@@H]3C[C@@H](Cc4ccccc4)CN3C(=O)OCc3ccccc3)n2)cc1` [Compound 7006, (2S,4R)-4-Benzyl-2-[4-(4-cyclopropylcarbamoyl-phenyl)-thiazol-2-ylcarbamoyl]-pyrrolidine-1-carboxylic acid benzyl ester] has an inhibition at 5 µM of 98.4%. `CNC(=O)CCCCC1SC[C@@H](C(=O)Nc2nc(-c3ccc(C(=O)NC4CC4)cc3)cs2)N1C(=O)OCc1ccccc1` (stereo partly drawn) [Compound 7099, 4-[4-(4-Cyclopropylcarbamoyl-phenyl)-thiazol-2-ylcarbamoyl]-2-(4-methylcarbamoyl-butyl)-thiazolidine-3-carboxylic acid benzyl ester] showed an inhibition at 5 µM of 100%. In the case of `O=C(NC1CC1)c1ccc(-c2csc(NC(=O)[C@@H]3CSC(c4cccc(F)c4)N3C(=O)OCc3ccccc3)n2)cc1` (mixture of isomers) [Compound 7048, (R)-4-[4-(4-Cyclopropylcarbamoyl-phenyl)-thiazol-2-ylcarbamoyl]-2-(3-fluoro-phenyl)-thiazolidine-3-carboxylic acid benzyl ester], the inhibition at 5 µM is reported as 99.3%. Work on `O=C(NC1CC1)c1ccc(-c2csc(NC(=O)[C@@H]3COC(c4ccncc4)N3C(=O)OCc3ccccc3)n2)cc1` (stereo partly drawn) [Compound 7011, (S)-4-[4-(4-Cyclopropylcarbamoyl-phenyl)-thiazol-2-ylcarbamoyl]-2-pyridin-4-yl-oxazolidine-3-carboxylic acid benzyl ester] yielded an inhibition at 5 µM of 98.8%. In the case of `O=C(O)CCC1SC[C@@H](C(=O)Nc2nc(-c3ccc(C(=O)NC4CC4)cc3)cs2)N1C(=O)OCc1ccccc1` (mixture of isomers) [Compound 7065, 2-(2-Carboxy-ethyl)-4-[4-(4-cyclopropylcarbamoyl-phenyl)-thiazol-2-ylcarbamoyl]-thiazolidine-3-carboxylic acid benzyl ester], the inhibition at 5 µM is reported as 92%. For `O=C(NC1CC1)c1ccc(-c2csc(NC(=O)[C@@H]3CSC(c4ccnc(Cl)c4)N3C(=O)OCc3ccccc3)n2)cc1` (mixture of isomers) [Compound 7029, (R)-2-(2-Chloro-pyridin-4-yl)-4-[4-(4-cyclopropylcarbamoyl-phenyl)-thiazol-2-ylcarbamoyl]-thiazolidine-3-carboxylic acid benzyl ester], the inhibition at 5 µM was 99.8%. In the case of `O=C(Nc1nc(-c2ccccc2)cs1)[C@@H]1CS[C@H](c2cccnc2)N1C(=O)OCc1ccccc1` [Compound 7058, (2R,4R)-4-(4-Phenyl-thiazol-2-ylcarbamoyl)-2-pyridin-3-yl-thiazolidine-3-carboxylic acid benzyl ester], the inhibition at 5 µM is reported as 99.9%. Molecule `CC1SC[C@@H](C(=O)Nc2nc(-c3ccc(C(=O)NC4CC4)cc3)cs2)N1C(=O)OCc1ccccc1` (stereo partly drawn) [Compound 7024, (R)-4-[4-(4-Cyclopropylcarbamoyl-phenyl)-thiazol-2-ylcarbamoyl]-2-methyl-thiazolidine-3-carboxylic acid benzyl ester] has an inhibition at 5 µM of 99.7%. `NC(=O)c1ccc(NC(=O)[C@@H]2CSC(c3ccncc3)N2C(=O)OCc2ccccc2)cc1` (stereo partly drawn) [Compound 7134, 4-(4-carbamoyl-phenylcarbamoyl)-2-pyridin-4-yl-thiazolidine-3-carboxylic acid benzyl ester] was tested, and the inhibition at 5 µM was 13.6%. Molecule `O=C(NC1CC1)c1ccc(-c2csc(NC(=O)[C@@H]3CSC(C4CCOCC4)N3C(=O)C3CC3)n2)cc1` (stereo partly drawn) [Compound 7085, 3-Cyclopropanecarbonyl-2-(tetrahydro-pyran-4-yl)-thiazolidine-4-carboxylic acid [4-(4-cyclopropylcarbamoyl-phenyl)-thiazol-2-yl]-amide] has an inhibition at 5 µM of 99.6%. `O=C(Nc1ccc(CNS(=O)(=O)c2ccccc2)cc1)[C@@H]1CSC(c2ccncc2)N1C(=O)OCc1ccccc1` (stereo partly drawn) [Compound 7111, 4-[4-(Benzenesulfonylamino-methyl)-phenylcarbamoyl]-2-pyridin-4-yl-thiazolidine-3-carboxylic acid benzyl ester] showed an inhibition at 5 µM of 43%. With `O=C(NC1CC1)c1ccc(-c2csc(NC(=O)[C@@H]3CC[C@H](c4ccc(CN5CCOCC5)cc4)N3C(=O)OCc3ccccc3)n2)cc1` [Compound 7045, (2S,5R)-2-[4-(4-Cyclopropylcarbamoyl-phenyl)-thiazol-2-ylcarbamoyl]-5-(4-morpholin-4-ylmethyl-phenyl)-pyrrolidine-1-carboxylic acid benzyl ester] the inhibition at 5 µM was 100%. Molecule `O=C(NC1CC1)c1ccc(-c2csc(NC(=O)[C@@H]3CC[C@H](c4ccccc4)N3C(=O)OCc3ccccc3)n2)cc1` [Compound 7052, (2S,5R)-2-[4-(4-Cyclopropylcarbamoyl-phenyl)-thiazol-2-ylcarbamoyl]-5-phenyl-pyrrolidine-1-carboxylic acid benzyl ester] has an inhibition at 5 µM of 98.9%. `Cn1ccnc1C(=O)N1C(C2CCOCC2)SC[C@H]1C(=O)Nc1nc(-c2ccc(C(=O)NC3CC3)cc2)cs1` (stereo partly drawn) [Compound 7092, 3-(1-Methyl-1H-imidazole-2-carbonyl)-2-(tetrahydro-pyran-4-yl)-thiazolidine-4-carboxylic acid [4-(4-cyclopropylcarbamoyl-phenyl)-thiazol-2-yl]-amide] showed an inhibition at 5 µM of 89.4%. `CCCC(C)C(=O)N1C(C2CCOCC2)SC[C@H]1C(=O)Nc1nc(-c2ccc(C(=O)NC3CC3)cc2)cs1` (stereo in doubt) [Compound 7103, 3-(2-Methyl-pentanoyl)-2-(tetrahydro-pyran-4-yl)-thiazolidine-4-carboxylic acid [4-(4-cyclopropylcarbamoyl-phenyl)-thiazol-2-yl]-amide] showed an inhibition at 5 µM of 99.8%. `COC(=O)c1cccc(C2SC[C@@H](C(=O)Nc3nc(-c4ccc(C(=O)NC5CC5)cc4)cs3)N2C(=O)OCc2ccccc2)c1` (mixture of isomers) [Compound 7057, (R)-4-[4-(4-Cyclopropylcarbamoyl-phenyl)-thiazol-2-ylcarbamoyl]-2-(3-methoxycarbonyl-phenyl)-thiazolidine-3-carboxylic acid benzyl ester] gave an inhibition at 5 µM of 100%. For `O=C(Nc1ccccc1)c1cccc(NC(=O)[C@@H]2CSC(c3ccncc3)N2C(=O)OCc2ccccc2)c1` (stereo in doubt) [Compound 7112, 4-(3-Phenylcarbamoyl-phenylcarbamoyl)-2-pyridin-4-yl-thizolidine-3-carboxylic acid benzyl ester], the inhibition at 5 µM was 64.2%. `O=C(O)CCCCC1SC[C@@H](C(=O)Nc2nc(-c3ccc(C(=O)NC4CC4)cc3)cs2)N1C(=O)OCc1ccccc1` (stereo in doubt) [Compound 7088, 2-(4-Carboxy-butyl)-4-[4-(4-cyclopropylcarbamoyl-phenyl)-thiazol-2-ylcarbamoyl]-thiazolidine-3-carboxylic acid benzyl ester] gave an inhibition at 5 µM of 99.8%. With `O=C(NC1CC1)c1ccc(-c2csc(NC(=O)[C@@H]3CSC(c4ccccc4F)N3C(=O)OCc3ccccc3)n2)cc1` (mixture of isomers) [Compound 7037, (R)-4-[4-(4-Cyclopropylcarbamoyl-phenyl)-thiazol-2-ylcarbamoyl]-2-(2-fluoro-phenyl)-thiazolidine-3-carboxylic acid benzyl ester] the inhibition at 5 µM was 100%. `O=C(NC1CC1)c1ccc(-c2csc(NC(=O)[C@@H]3Cc4ccccc4N3C(=O)OCc3ccccc3)n2)cc1` [Compound 7039, (S)-2-[4-(4-Cyclopropylcarbamoyl-phenyl)-thiazol-2-ylcarbamoyl]-2,3-dihydro-indole-1-carboxylic acid benzyl ester] was tested, and the inhibition at 5 µM was 100%. Molecule `CC(C)(C)OC(=O)N1c2ccccc2C[C@H]1C(=O)Nc1nc(-c2ccc(C(=O)NC3CC3)cc2)cs1` [Compound 7020, (S)-2-[4-(4-Cyclopropylcarbamoyl-phenyl)-thiazol-2-ylcarbamoyl]-2,3-dihydro-indole-1-carboxylic acid tert-butyl ester] has an inhibition at 5 µM of 99.5%. `O=C(NC1CC1)c1ccc(-c2csc(NC(=O)[C@@H]3CSC(c4cc[n+]([O-])cc4)N3C(=O)OCc3ccccc3)n2)cc1` (stereo partly drawn) [Compound 7050, (R)-4-[4-(4-Cyclopropylcarbamoyl-phenyl)-thiazol-2-ylcarbamoyl]-2-(1-oxy-pyridin-4-yl)-thiazolidine-3-carboxylic acid benzyl ester] gave an inhibition at 5 µM of 100%. In the case of `O=C(O)c1cccc(C2SC[C@@H](C(=O)Nc3nc(-c4ccc(C(=O)NC5CC5)cc4)cs3)N2C(=O)OCc2ccccc2)c1` (mixture of isomers) [Compound 7034, (R)-2-(3-Carboxy-phenyl)-4-[4-(4-cyclopropylcarbamoyl-phenyl)-thiazol-2-ylcarbamoyl]-thiazolidine-3-carboxylic acid benzyl ester], the inhibition at 5 µM is reported as 98.7%. `O=C(NC1CC1)c1ccc(-c2csc(NC(=O)[C@@H]3CSC(Cc4ccccc4)N3C(=O)OCc3ccccc3)n2)cc1` (stereo partly drawn) [Compound 7101, 2-Benzyl-4-[4-(4-cyclopropylcarbamoyl-phenyl)-thiazol-2-ylcarbamoyl]-thiazolidine-3-carboxylic acid benzyl ester] gave an inhibition at 5 µM of 98.4%.
